# Reference: patent US11155523B2, “Biphenyl compound as CCR2/CCR5 receptor antagonist” (Medshine Discovery Inc., priority 2016, dated 2021)
# Biological target: T1, CCR5 (Homo sapiens, UniProt P51681)
# T1 construct: expressed in transfected cells; host or cells: HEK293, clone C13, passage P4
# Assay: CCR5 in vitro test: intracellular calcium signal detected by FLIPR
# Type: cell-based
# Details: HEK293 cells expressing CCR5, agonist RANTES at EC80, calcium signal
# Experimental: (§1) Experimental Example 1: CCR2/CCR5 In Vitro Test
# (§2) The intracellular calcium signal was detected by FLIPR, and the IC50 value of the compound was used as an index to evaluate the inhibitory effect of the compound on CCR2 and CCR5 receptors.
# (§3) 1. Cell line: The cells were inoculated and incubated in a 5% CO2 incubator at 37° C. overnight.
# (§4) CCR2/CCR5 density: 1 M (20 k/well)
# (§5) 2. Reagents: Fluo-4 Direct, (Invitrogen, Cat #F10471)
# (§6) The compound was dissolved in DMSO to prepare a 10 mM solution, and the compound solution was placed in a nitrogen box.
# (§7) Agonist reference compounds:
# (§8) Preparation of probenecid in FLIPR assay buffer: 1 mL of FLIPR assay buffer was added to […] of probenecid to prepare a 250 mM solution, which is prepared fresh daily.
# (§9) 2× (8 μM) Fluo-4 Direct™ Loading Buffer (per 10 mL) • Thaw a bottle of Fluo-4 Direct™ crystal (F10471). • Add 10 mL of FLIPR assay buffer to the vial. • Add 0.2 mL of probenecid to each 10 mL of Fluo-Direct. The final concentration of the assay was 2.5 mM. • Rotate it and place for >5 minutes (in absence of light). • Prepare fresh daily.
# (§10) MCP-1 was diluted in FLIPR assay buffer 1:2 into 10 points, starting at 0.5 uM (final 100 nM). RANTES was diluted in FLIPR assay buffer 1:3 into 10 points, starting at 0.5 uM (final 100 nM). 20 uL of serially diluted compound buffer was added to each well of the DRC plate according to the compound plate map.
# (§11) Standard compound was diluted in DMSO 1:3 into 11 points, starting at 1 mM. Test compound was diluted in DMSO 1:3 into 11 points, starting at 2 mM. 250 nL of compound solution was transferred into a cell plate using Echo (Greiner #781946).
# (§12) (c) Take the cell plate out of the incubator, and gently dispense 20 uL of 2× Fluo-4 Direct wash-free loading buffer into a 384-well cell culture plate using a pipette. The final cell plate is 40 μL in volume.
# (§13) (d) Incubate for 50 minutes at 37° C. under 5% CO2, and for 10 minutes at room temperature.
# (§14) (e) Take the cell plate out of the incubator, and place it in FLIPR. Place the composite plate and the tip box in FLIPR.
# (§15) (f) For DRC plate: • 1) Run the program on FLIPRTETRA. • 2) Read the fluorescent signal. • 3) Transfer 10 μL of compound from the DRC plate to the cell plate. • 4) Read the fluorescent signal. • 5) Calculate the “maximum−minimum” from Read 90 to the maximum allowed. Use FLIPR to calculate the EC80 value of each cell line. • 6) Prepare 5×EC80 concentration of the agonist reference compound.
# (§16) (g) For the composite plate (1-add): • 1) Run the program on FLIPRTETRA. • 2) Transfer 10 μl, of 5×EC80 concentration of the agonist reference compound from the composite plate to the cell plate. • 3) Read the fluorescent signal. • 4) Calculate the “maximum−minimum” from Read 90 to the maximum allowed.
# (§17) (h) Analyze the data using Prism, and calculate the IC50 value of the compound.
# T1 sequence (P51681 whole entry, species assumed): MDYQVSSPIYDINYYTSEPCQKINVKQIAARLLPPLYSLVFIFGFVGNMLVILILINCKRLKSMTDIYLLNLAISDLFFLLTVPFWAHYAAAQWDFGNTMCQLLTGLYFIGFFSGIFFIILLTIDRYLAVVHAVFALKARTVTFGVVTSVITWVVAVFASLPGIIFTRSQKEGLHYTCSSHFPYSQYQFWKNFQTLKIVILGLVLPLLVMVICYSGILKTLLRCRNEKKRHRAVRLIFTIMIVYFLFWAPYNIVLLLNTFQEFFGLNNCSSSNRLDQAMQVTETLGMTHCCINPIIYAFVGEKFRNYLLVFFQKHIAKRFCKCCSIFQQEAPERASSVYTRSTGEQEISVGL
row,SMILES,IC50 [nM]
1,CCCCOc1ccc(-c2ccc(OCCCF)c(/C=C/C(=O)Nc3ccc([S@@+]([O-])Cc4cncn4CCC)cc3)c2)cc1 [WX024],1.3
2,CCCCOc1ccc(-c2ccc(Cl)c(/C=C/C(=O)Nc3ccc([S@@+]([O-])Cc4cncn4CCC)cc3)c2)cc1 [WX025],7.4
3,CCCCOc1ccc(-c2ccc(OCC(F)F)c(/C=C/C(=O)Nc3ccc([S@@+]([O-])Cc4cncn4CCC)cc3)c2)cc1 [WX026],3.2
4,CCCCOc1ccc(-c2ccc(Cl)c(/C=C/C(=O)Nc3ccc([S+]([O-])Cc4cncn4CCCC)cc3)c2)cc1 (stereo not drawn) [WX027],13.6
5,CCCCOCCOc1ccc(-c2cccc(/C=C/C(=O)Nc3ccc([S+]([O-])Cc4cncn4CCCC)cc3)c2)cc1 (stereo not drawn) [WX028],15.5
6,CCCCOCCOc1ccc(-c2cccc(/C=C/C(=O)Nc3ccc([S+]([O-])Cc4cncn4CC(C)C)cc3)c2)cc1 (stereo not drawn) [WX029],34.2
7,CCCCOc1ccc(-c2ccc(Cl)c(/C=C/C(=O)Nc3ccc([S+]([O-])Cc4cncn4CC(C)C)cc3)c2)cc1 (stereo not drawn) [WX030],15.9
8,CCCCOCCOc1ccc(-c2cccc(/C=C/C(=O)Nc3ccc(S(=O)(=O)Cc4cncn4CCC)cc3)c2)cc1 [WX031],95.9
9,CCCCOCCOc1ccc(-c2ccc(OCC)c(/C=C/C(=O)Nc3ccc([S@@+]([O-])Cc4cncn4CCC)cc3)c2)cc1 [WX032],8.1
10,CCCCOCCOc1ccc(-c2ccc(OC(C)C)c(/C=C/C(=O)Nc3ccc([S@@+]([O-])Cc4cncn4CCC)cc3)c2)cc1 [WX033],11.8
11,CCCCOCCOc1ccc(-c2ccc(OCC(C)C)c(/C=C/C(=O)Nc3ccc([S@@+]([O-])Cc4cncn4CCC)cc3)c2)cc1 [WX034],10
12,CCCCOCCOc1ccc(-c2cc(/C=C/C(=O)Nc3ccc([S@@+]([O-])Cc4cncn4CCC)cc3)c(OC)c(OC)c2)cc1 [WX035],16.1
13,CCCCOCCOc1ccc(-c2ccc(OC)c(/C=C/C(=O)Nc3ccc([S@@+]([O-])Cc4cncn4CCC)cc3)c2)c(C)c1 [WX036],13.3
14,CCCn1cncc1C[S@+]([O-])c1ccc(NC(=O)/C=C/c2cccc(-c3ccc(N4CCCC4)cc3)c2)cc1 [WX037],44.2
15,CCCCOCCOc1ccc(-c2ccc(OC)c(/C=C/C(=O)Nc3ccc([S+]([O-])Cc4c(C)ncn4CCC)cc3)c2)cc1 (stereo not drawn) [WX038],12.5
16,CCCCOCCOc1ccc(-c2ccc(OC)c(/C=C/C(=O)Nc3ccc([S@+]([O-])Cc4cncn4CC)cc3)c2)cc1 [WX039],760
17,CCCCOCCOc1ccc(-c2ccc(OC)c(/C=C/C(=O)Nc3ccc([S@@+]([O-])Cc4cncn4CC)cc3)c2)cc1 [WX040],10.5
18,CCCCOCCOc1ccc(-c2ccc(C)c(/C=C/C(=O)Nc3ccc([S+]([O-])Cc4cncn4CC)cc3)c2)cc1 (stereo not drawn) [WX041],21.4
19,CCCCOCCOc1ccc(-c2cc(C)c(OC)c(/C=C/C(=O)Nc3ccc([S@@+]([O-])Cc4cncn4CCC)cc3)c2)cc1 [WX042],4
20,CCCCOCCOc1ccc(-c2cc(/C=C/C(=O)Nc3ccc([S@@+]([O-])Cc4cncn4CCC)cc3)c(OC)cc2Cl)cc1 [WX043],9.1
21,CCCCOCCOc1ccc(-c2ccc(C#N)c(/C=C/C(=O)Nc3ccc([S@@+]([O-])Cc4cncn4CCC)cc3)c2)cc1 [WX044],16.1
22,CCCCOCCOc1ccc(-c2ccc(OC)c(/C=C/C(=O)Nc3ccc([S+]([O-])Cc4c(C)ncn4CC)cc3)c2)cc1 (stereo not drawn) [WX045],14.8

# Biological target: T2, CCR2 (Homo sapiens, UniProt P41597)
# T2 construct: expressed in transfected cells; host or cells: HEK293, clone C7, passage P6
# T2 sequence (P41597 whole entry, species assumed): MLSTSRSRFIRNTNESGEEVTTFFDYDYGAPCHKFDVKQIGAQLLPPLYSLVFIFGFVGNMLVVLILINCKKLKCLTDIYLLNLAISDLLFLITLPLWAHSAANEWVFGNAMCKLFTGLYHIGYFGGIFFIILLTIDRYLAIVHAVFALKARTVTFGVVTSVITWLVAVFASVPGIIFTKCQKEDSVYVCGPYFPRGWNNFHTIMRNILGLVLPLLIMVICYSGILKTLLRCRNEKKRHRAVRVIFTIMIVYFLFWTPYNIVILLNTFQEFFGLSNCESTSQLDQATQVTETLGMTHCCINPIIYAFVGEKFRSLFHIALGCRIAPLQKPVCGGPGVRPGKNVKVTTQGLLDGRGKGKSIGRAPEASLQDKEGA
# Assay: CCR2 in vitro test: intracellular calcium signal detected by FLIPR
# Type: cell-based
# Details: HEK293 cells expressing CCR2, agonist MCP-1 at EC80, calcium signal
# Experimental: as §1, §2, §3, §4, §5, §6, §7, §8, §9, §10, §11, §12, §13, §14, §15, §16, §17
row,SMILES,IC50 [nM]
1,CCCCOc1ccc(-c2ccc(OCCCF)c(/C=C/C(=O)Nc3ccc([S@@+]([O-])Cc4cncn4CCC)cc3)c2)cc1 [WX024],63.1
2,CCCCOc1ccc(-c2ccc(Cl)c(/C=C/C(=O)Nc3ccc([S@@+]([O-])Cc4cncn4CCC)cc3)c2)cc1 [WX025],127
3,CCCCOc1ccc(-c2ccc(OCC(F)F)c(/C=C/C(=O)Nc3ccc([S@@+]([O-])Cc4cncn4CCC)cc3)c2)cc1 [WX026],175
4,CCCCOc1ccc(-c2ccc(Cl)c(/C=C/C(=O)Nc3ccc([S+]([O-])Cc4cncn4CCCC)cc3)c2)cc1 (stereo not drawn) [WX027],207
5,CCCCOCCOc1ccc(-c2cccc(/C=C/C(=O)Nc3ccc([S+]([O-])Cc4cncn4CCCC)cc3)c2)cc1 (stereo not drawn) [WX028],86.4
6,CCCCOCCOc1ccc(-c2cccc(/C=C/C(=O)Nc3ccc([S+]([O-])Cc4cncn4CC(C)C)cc3)c2)cc1 (stereo not drawn) [WX029],167
7,CCCCOc1ccc(-c2ccc(Cl)c(/C=C/C(=O)Nc3ccc([S+]([O-])Cc4cncn4CC(C)C)cc3)c2)cc1 (stereo not drawn) [WX030],300
8,CCCCOCCOc1ccc(-c2cccc(/C=C/C(=O)Nc3ccc(S(=O)(=O)Cc4cncn4CCC)cc3)c2)cc1 [WX031],237
9,CCCCOCCOc1ccc(-c2ccc(OCC)c(/C=C/C(=O)Nc3ccc([S@@+]([O-])Cc4cncn4CCC)cc3)c2)cc1 [WX032],28.6
10,CCCCOCCOc1ccc(-c2ccc(OC(C)C)c(/C=C/C(=O)Nc3ccc([S@@+]([O-])Cc4cncn4CCC)cc3)c2)cc1 [WX033],56.3
11,CCCCOCCOc1ccc(-c2ccc(OCC(C)C)c(/C=C/C(=O)Nc3ccc([S@@+]([O-])Cc4cncn4CCC)cc3)c2)cc1 [WX034],30
12,CCCCOCCOc1ccc(-c2cc(/C=C/C(=O)Nc3ccc([S@@+]([O-])Cc4cncn4CCC)cc3)c(OC)c(OC)c2)cc1 [WX035],215
13,CCCCOCCOc1ccc(-c2ccc(OC)c(/C=C/C(=O)Nc3ccc([S@@+]([O-])Cc4cncn4CCC)cc3)c2)c(C)c1 [WX036],64.9
14,CCCn1cncc1C[S@+]([O-])c1ccc(NC(=O)/C=C/c2cccc(-c3ccc(N4CCCC4)cc3)c2)cc1 [WX037],62.2
15,CCCCOCCOc1ccc(-c2ccc(OC)c(/C=C/C(=O)Nc3ccc([S+]([O-])Cc4c(C)ncn4CCC)cc3)c2)cc1 (stereo not drawn) [WX038],42.5
16,CCCCOCCOc1ccc(-c2ccc(OC)c(/C=C/C(=O)Nc3ccc([S@+]([O-])Cc4cncn4CC)cc3)c2)cc1 [WX039],70.1
17,CCCCOCCOc1ccc(-c2ccc(OC)c(/C=C/C(=O)Nc3ccc([S@@+]([O-])Cc4cncn4CC)cc3)c2)cc1 [WX040],11.3
18,CCCCOCCOc1ccc(-c2ccc(C)c(/C=C/C(=O)Nc3ccc([S+]([O-])Cc4cncn4CC)cc3)c2)cc1 (stereo not drawn) [WX041],22.5
19,CCCCOCCOc1ccc(-c2cc(C)c(OC)c(/C=C/C(=O)Nc3ccc([S@@+]([O-])Cc4cncn4CCC)cc3)c2)cc1 [WX042],52.8
20,CCCCOCCOc1ccc(-c2cc(/C=C/C(=O)Nc3ccc([S@@+]([O-])Cc4cncn4CCC)cc3)c(OC)cc2Cl)cc1 [WX043],250
21,CCCCOCCOc1ccc(-c2ccc(C#N)c(/C=C/C(=O)Nc3ccc([S@@+]([O-])Cc4cncn4CCC)cc3)c2)cc1 [WX044],293
22,CCCCOCCOc1ccc(-c2ccc(OC)c(/C=C/C(=O)Nc3ccc([S+]([O-])Cc4c(C)ncn4CC)cc3)c2)cc1 (stereo not drawn) [WX045],77.6
23,CCCCOCCOc1ccc(-c2cc(F)c(OCC)c(/C=C/C(=O)Nc3ccc([S@+]([O-])Cc4c(C)ncn4CC)cc3)c2)cc1 [WX089],15
